The text below walks through data of US10071129B2, “Method for identifying bromodomain inhibitors” (WHITEHEAD INSTITUTE FOR BIOMEDICAL RESEARCH DANA-FARBER …, priority 2011, dated 2018).

The target of assay [1] is BRD4 (Homo sapiens, UniProt O60885). As to conditions: MM.1S cells, 500 nM, 24 hours.
Experimental: Approximately 1×10^8 MM1S cells were treated with 500 nM JQ1 or DMSO for 24 hours and crosslinked with 1.1% formaldehyde (10× crosslink solution contains 11% formaldehyde, 50 mM Hepes pH7.3, 100 mM NaCl, 1 mM EDTA p118.0, 0.5 mM EGTA pH8.0) to the growth media followed by two washes with PBS. Cells were scraped and frozen in liquid nitrogen. Brd4 ChIP-PCR analysis was done on these cells following the protocol in Rahl et al. Cell 2010. In brief, 75 ul of Dynal magnetic beads (Sigma) were blocked with 0.5% BSA (w/v) in PBS. Magnetic beads were bound with 6.25 ug of Brd4 antibody (Bethyl Labs, A310-985A, lot A301-985A-1, FIG. 1A or Sigma, HPA015055-100, lot A31530, FIG. 1B). […]
Brd4 ChIP and input DNA were analyzed using SYBR Green real-time PCR analysis (Applied Biosystems). […] Fold enrichment was determined from triplicate PCR reactions at five potential enhancer regions adjacent to the MYC gene in non-translocated cells (MYC_E1, MYC_E2, MYC_E3, MYC_E4, MYC_E5), the MYC transcriptional start site (MYC_TS1, MYC_TS2), IGH enhancer regions (IGH_E1, IGH_E2, IGH_E3, IGH_E4), and two negative regions upstream of the MYC enhancers (MYC_NR2, MYC_NR3) over input DNA using DDCt over the negative region MYC_NR1.
Assay [2] has as its system cMyc target genes. Kind of assay: Genome-wide expression of cMyc target genes and MYC transcription after JQ1 treatment. The assay is classed as cell-based. The method, then:
(§1) To test BET bromodomain inhibitors as a strategy to downregulate the cMyc transcriptional network and the mechanism of downregulation, multiple myeloma cells were treated with JQ1.

Assay [3] deals with multiple myeloma cells. Briefly: Antiproliferative effect of JQ1 treatment in multiple myeloma cells. Type of assay: cell-based. As to conditions: multiple myeloma cells treated with JQ1. The method, then: as §1
Assay [4] has as its system cMyc. Briefly: cMyc protein levels after JQ1 treatment of multiple myeloma cells. Type of assay: cell-based. As to conditions: multiple myeloma cells treated with JQ1. How it is done:
as §1

The structures appear in SMILES notation.

In the case of `Cc1sc2c(c1C)C(c1ccc(Cl)cc1)=N[C@@H](CC(=O)OC(C)(C)C)c1nnc(C)n1-2` [JQ1, [(S)-4-(4-Chloro-phenyl)-2,3,9-trimethyl-6H-1-thia-5,7,8,9a-tetraaza-cyclopenta[e]azulen-6-yl]-acetic acid tert-butyl ester], the “BRD4 binding to IgH enhancers and the TSS (ChIP)” value in assay [1] is “significantly depleted BRD4 binding to IgH enhancers and the TSS”. In assay [2] (multiple myeloma cells treated with JQ1), the MYC transcription result was “early and sustained JQ1-induced suppression of MYC transcription”. The “expression of cMyc target genes” value in assay [2] (multiple myeloma cells treated with JQ1, genome-wide) is on record as “genome-wide downregulation of cMyc target genes”. For the same compound, the antiproliferative effect entry in assay [3] was “potent antiproliferative effect”. Further, the cMyc protein levels result in assay [4] was “rapid downregulation of cMyc protein levels”.
